Measurements from BindingDB's records for doi:10.1021/acs.jmedchem.0c00262 (University of Leeds, 2020).

Legend:
[1] = Modulation of GP6 in human platelets assessed as reduction in convulxin-induced platelet aggregation
[2] = Modulation of GP6 in human platelets reduction in collagen-induced platelet aggregation preincubated for 20 mins followed by collagen stimulation
[3] = Inhibition of GP6 in human whole blood assessed as protein-mediated platelet aggregation preincubated for 15 mins followed by collagen stimulation and measured for 10 mins by multiple electrode aggregometry
Platelet glycoprotein VI = molecular target: T1, Platelet glycoprotein VI (Homo sapiens, UniProt Q9HCN6); test: Inhibition of GP6 in human whole blood assessed as protein-mediated platelet aggregation preincubated for 15 mins followed by collagen stimulation and measured for 10 mins by multiple electrode aggregometry
T1 sequence (Q9HCN6 whole entry): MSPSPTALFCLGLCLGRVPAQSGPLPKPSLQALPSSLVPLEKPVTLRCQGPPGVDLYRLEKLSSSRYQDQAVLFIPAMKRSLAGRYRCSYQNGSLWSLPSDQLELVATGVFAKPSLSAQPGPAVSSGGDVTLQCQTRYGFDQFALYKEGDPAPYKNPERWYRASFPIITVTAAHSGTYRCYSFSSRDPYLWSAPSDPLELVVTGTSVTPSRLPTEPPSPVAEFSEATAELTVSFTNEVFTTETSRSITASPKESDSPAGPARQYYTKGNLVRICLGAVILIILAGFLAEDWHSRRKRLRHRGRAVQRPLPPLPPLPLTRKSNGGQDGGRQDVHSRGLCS

[4] = Antagonist activity at GP6 in human platelet assessed as reduction in CRP-induced platelet-aggregation preincubated for 10 mins followed by collagen stimulation by aggregometry
[5] = Antagonist activity at GP6 in human platelet assessed as reduction in collagen-induced platelet-aggregation preincubated for 10 mins followed by collagen stimulation by aggregometry

SMILES: Cc1cccc(Nc2nc(N[C@@H]3CCCC[C@@H]3N)ncc2C(N)=O)c1
- IC50 [1]: 31 nM
- IC50 [2]: 570 nM

SMILES: C=CC(=O)N1CCC([C@@H]2CCNc3c(C(N)=O)c(-c4ccc(Oc5ccccc5)cc4)nn32)CC1 (single isomer, unassigned) [US9447106, 27b (peak 2)]
- IC50 [3]: 510 nM

SMILES: C/C=C/C(=O)N1CCC[C@H]1c1nc(-c2ccc(C(=O)Nc3ccccn3)cc2)c2c(N)nccn12 [ACP-196]
- IC50 (Platelet glycoprotein VI): 1210 nM

SMILES: C=C1C(=O)[C@@]23[C@H](O)C[C@@H]4C(C)(C)C(=O)CC[C@@]4(C)[C@@H]2CC[C@@H]1[C@H]3O [Glaucocalyxin A]
- IC50 [4]: 2 nM
- IC50 [5]: 21 nM

SMILES: C=CC(=O)N1CCC[C@@H](n2nc(-c3ccc(Oc4ccccc4)cc3)c3c(N)ncnc32)C1 [IBRUTINIB]
- IC50 [3]: 120 nM

SMILES: CC#CC(=O)N1CC[C@@H](n2c(=O)n(-c3ccc(Oc4ccccc4)cc3)c3c(N)ncnc32)C1 [US9199997, 9]
- IC50 [3]: 1200 nM

SMILES: C=CC(=O)N1CCC(CNc2ncnc(N)c2-c2ccc(Oc3ccccc3)cc2)CC1 [US9580449, Example A39]
- IC50 [3]: 5840 nM
